Laboratory results: the NIST ThermoML archive (doi:10.1021/acs.jced.5b00892)

Details: Liquid, Gas chromatography

CCOC(=O)/C=C(C)/C=C/C[C@@H](C)CCCC(C)C [ethyl (S,2E,4E)-3,7,11-trimethyldodeca-2,4-dienoate]
Details	vapor or sublimation pressure [kPa]
298.15 K	1.4e-05
310 K	5.7e-05
320 K	0.00017
330 K	0.00047
340 K	0.0012
350 K	0.0029
360 K	0.0065
370 K	0.014
380 K	0.028
390 K	0.054
400 K	0.1
410 K	0.18
420 K	0.3
430 K	0.5
440 K	0.81
450 K	1.3
460 K	1.9
470 K	2.8
480 K	4.1
490 K	5.8
500 K	8

CCCCCCCC/C=C\CCCOC(C)=O [(Z)-tridec-4-enyl acetate]
Details	vapor or sublimation pressure [kPa]
298 K	0.00012
310 K	0.00042
320 K	0.0011
330 K	0.0028
340 K	0.0065
350 K	0.0142
360 K	0.029
370 K	0.058
380 K	0.11
390 K	0.2
400 K	0.34
410 K	0.57
420 K	0.92
430 K	1.5
440 K	2.2
450 K	3.3
460 K	4.8
470 K	6.9
480 K	9.6
490 K	13
500 K	18

CCC/C=C\CCCCCCCOC(C)=O [(Z)-dodec-8-enyl acetate]
Details	vapor or sublimation pressure [kPa]
298 K	0.00027
310 K	0.00091
320 K	0.0023
330 K	0.0056
340 K	0.013
350 K	0.027
360 K	0.053
370 K	0.1
380 K	0.19
390 K	0.33
400 K	0.56
410 K	0.93
420 K	1.5
430 K	2.3
440 K	3.5
450 K	5.1
460 K	7.3
470 K	10
480 K	14.1
490 K	19
500 K	25

CC/C=C/C=C/CCCCCCCCOC(C)=O [(9E,11E)-tetradeca-9,11-dienyl acetate]
Details	vapor or sublimation pressure [kPa]
298.15 K	1.5e-05
310 K	6.3e-05
320 K	0.00019
330 K	0.00051
340 K	0.0013
350 K	0.0031
360 K	0.007
370 K	0.015
380 K	0.03
390 K	0.058
400 K	0.11
410 K	0.19
420 K	0.33
430 K	0.54
440 K	0.87
450 K	1.4
460 K	2.1
470 K	3
480 K	4.4
490 K	6.2
500 K	8.6

CC/C=C/CCCCCCCCCCOC(C)=O [(E)-tetradec-11-enyl acetate]
Details	vapor or sublimation pressure [kPa]
298.15 K	2.8e-05
310 K	0.00011
320 K	0.00032
330 K	0.00086
340 K	0.0021
350 K	0.0049
360 K	0.011
370 K	0.022
380 K	0.044
390 K	0.084
400 K	0.15
410 K	0.27
420 K	0.45
430 K	0.73
440 K	1.2
450 K	1.8
460 K	2.7
470 K	3.9
480 K	5.6
490 K	7.8
500 K	11

CCCC/C=C\CCCCCCCCCCCCOC(C)=O [(Z)-octadec-13-en-1-yl acetate]
Details	vapor or sublimation pressure [kPa]
298.15 K	4.1e-07
310 K	2.2e-06
320 K	8.2e-06
330 K	2.7e-05
340 K	8.3e-05
350 K	0.00023
360 K	0.00061
370 K	0.0015
380 K	0.0034
390 K	0.0074
400 K	0.015
410 K	0.03
420 K	0.056
430 K	0.1
440 K	0.18
450 K	0.3
460 K	0.48
470 K	0.76
480 K	1.2
490 K	1.7
500 K	2.5

C#CCOC(=O)/C=C(C)/C=C/CC(C)CCCC(C)C (configuration not stated) [prop-2-ynyl (2E,4E)-3,7,11-trimethyldodeca-2,4-dienoate]
Details	vapor or sublimation pressure [kPa]
298.15 K	4.2e-06
310 K	1.9e-05
320 K	6.1e-05
330 K	0.00018
340 K	0.00049
350 K	0.0012
360 K	0.0029
370 K	0.0065
380 K	0.014
390 K	0.028
400 K	0.053
410 K	0.098
420 K	0.17
430 K	0.29
440 K	0.49
450 K	0.78
460 K	1.2
470 K	1.8
480 K	2.7
490 K	3.9
500 K	5.5
